Data published in PubChem BioAssay (NCI).
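Interpolation was linear, between the two tested concentrations surrounding the appropriate level; five concentrations were tested over 48 hours in 96-well plates. At the TGI there is no net growth.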

How the values were obtained:
Assay in all cases: NCI tumour cell line growth inhibition, 48 h
786-0 renal = test system: 786-0 renal
A498 renal = test system: A498 renal
A549 NSCLC = test system: A549 NSCLC
ACHN renal = test system: ACHN renal
BT-549 breast = test system: BT-549 breast
CAKI-1 renal = test system: CAKI-1 renal
CCRF-CEM leukemia = test system: CCRF-CEM leukemia
COLO 205 colon = test system: COLO 205 colon
DLD-1 colon = test system: DLD-1 colon
DMS 114 small cell lung = test system: DMS 114 small cell lung
DMS 273 small cell lung = test system: DMS 273 small cell lung
DU-145 prostate = test system: DU-145 prostate
EKVX NSCLC = test system: EKVX NSCLC
HCC-2998 colon = test system: HCC-2998 colon
HCT-116 colon = test system: HCT-116 colon
HCT-15 colon = test system: HCT-15 colon
HL-60(TB) leukemia = test system: HL-60(TB) leukemia
HOP-18 NSCLC = test system: HOP-18 NSCLC
HOP-62 NSCLC = test system: HOP-62 NSCLC
HOP-92 NSCLC = test system: HOP-92 NSCLC
HS 578T breast = test system: HS 578T breast
HT29 colon = test system: HT29 colon
IGROV1 ovarian = test system: IGROV1 ovarian
K-562 leukemia = test system: K-562 leukemia
KM12 colon = test system: KM12 colon
KM20L2 colon = test system: KM20L2 colon
LOX IMVI melanoma = test system: LOX IMVI melanoma
M14 melanoma = test system: M14 melanoma
M19-MEL melanoma = test system: M19-MEL melanoma
MALME-3M melanoma = test system: MALME-3M melanoma
MCF7 breast = test system: MCF7 breast
MDA-MB-231 breast = test system: MDA-MB-231 breast
MDA-MB-435 = test system: MDA-MB-435
MDA-N = test system: MDA-N
MOLT-4 leukemia = test system: MOLT-4 leukemia
NCI-H226 lung = test system: NCI-H226 lung
NCI-H23 lung = test system: NCI-H23 lung
NCI-H460 lung = test system: NCI-H460 lung
NCI-H522 lung = test system: NCI-H522 lung
NCI/ADR-RES ovarian = test system: NCI/ADR-RES ovarian
OVCAR-3 ovarian = test system: OVCAR-3 ovarian
OVCAR-4 ovarian = test system: OVCAR-4 ovarian
OVCAR-5 ovarian = test system: OVCAR-5 ovarian
OVCAR-8 ovarian = test system: OVCAR-8 ovarian
PC-3 prostate = test system: PC-3 prostate
RPMI-8226 leukemia = test system: RPMI-8226 leukemia
RXF 393 renal = test system: RXF 393 renal
SF-268 CNS = test system: SF-268 CNS
SF-295 CNS = test system: SF-295 CNS
SF-539 CNS = test system: SF-539 CNS
SK-MEL-2 melanoma = test system: SK-MEL-2 melanoma
SK-MEL-28 melanoma = test system: SK-MEL-28 melanoma
SK-MEL-5 melanoma = test system: SK-MEL-5 melanoma
SK-OV-3 ovarian = test system: SK-OV-3 ovarian
SN12C renal = test system: SN12C renal
SNB-19 CNS = test system: SNB-19 CNS
SNB-75 CNS = test system: SNB-75 CNS
SNB-78 CNS = test system: SNB-78 CNS
SR leukemia = test system: SR leukemia
SW-620 colon = test system: SW-620 colon
T-47D breast = test system: T-47D breast
TK-10 renal = test system: TK-10 renal
U251 CNS = test system: U251 CNS
UACC-257 melanoma = test system: UACC-257 melanoma
UACC-62 melanoma = test system: UACC-62 melanoma
UO-31 renal = test system: UO-31 renal
XF 498 CNS = test system: XF 498 CNS
LXFL 529 NSCLC = test system: LXFL 529 NSCLC
RXF-631 renal = test system: RXF-631 renal

Measured: TGI

S=c1c2[nH]cnc2ncn1CCSC1=NC=NC2=NC=NC21 (configuration not stated)
not listed: LXFL 529 NSCLC | RXF-631 renal
> 100 µM: all other assays above

O=C(CCc1ccccc1)NS(=O)(=O)c1ccccc1
not listed: BT-549 breast | DMS 273 small cell lung | DU-145 prostate | HCT-15 colon | HS 578T breast | MCF7 breast | MDA-MB-231 breast | MDA-MB-435 | MDA-N | NCI/ADR-RES ovarian | PC-3 prostate | SK-MEL-5 melanoma | SNB-78 CNS | T-47D breast
> 100 µM: all other assays above
